This is an account of results in PMC4400266 (ACS chemical neuroscience, 2015).

Experiment [1] has as its target T1, human OX1 receptors (Homo sapiens, UniProt O43613).
T1 sequence (O43613 1-425): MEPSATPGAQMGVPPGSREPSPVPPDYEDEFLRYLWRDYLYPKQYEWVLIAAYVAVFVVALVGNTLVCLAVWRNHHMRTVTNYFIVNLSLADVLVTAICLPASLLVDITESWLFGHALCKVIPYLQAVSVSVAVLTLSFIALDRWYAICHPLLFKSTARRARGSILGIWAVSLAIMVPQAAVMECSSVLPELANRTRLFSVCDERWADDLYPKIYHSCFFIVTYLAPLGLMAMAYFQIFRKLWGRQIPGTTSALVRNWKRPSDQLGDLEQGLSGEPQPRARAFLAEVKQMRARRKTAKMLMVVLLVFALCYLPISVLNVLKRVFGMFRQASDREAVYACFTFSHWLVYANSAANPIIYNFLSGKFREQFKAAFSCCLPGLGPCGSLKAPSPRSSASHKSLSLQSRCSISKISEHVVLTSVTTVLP
Nature of the experiment: Calcium mobilization Ke assay. It counts as cell-based. Particulars: for OX2/OX1: ratio of Ke OX2 to Ke OX1 (table column). (Calcium assays in cells follow changes in intracellular calcium, usually with a dye or a luminescent sensor.)

In experiment [2] the target is T2, human OX2 receptors (Homo sapiens, UniProt O43614).
T2 sequence (O43614 1-444): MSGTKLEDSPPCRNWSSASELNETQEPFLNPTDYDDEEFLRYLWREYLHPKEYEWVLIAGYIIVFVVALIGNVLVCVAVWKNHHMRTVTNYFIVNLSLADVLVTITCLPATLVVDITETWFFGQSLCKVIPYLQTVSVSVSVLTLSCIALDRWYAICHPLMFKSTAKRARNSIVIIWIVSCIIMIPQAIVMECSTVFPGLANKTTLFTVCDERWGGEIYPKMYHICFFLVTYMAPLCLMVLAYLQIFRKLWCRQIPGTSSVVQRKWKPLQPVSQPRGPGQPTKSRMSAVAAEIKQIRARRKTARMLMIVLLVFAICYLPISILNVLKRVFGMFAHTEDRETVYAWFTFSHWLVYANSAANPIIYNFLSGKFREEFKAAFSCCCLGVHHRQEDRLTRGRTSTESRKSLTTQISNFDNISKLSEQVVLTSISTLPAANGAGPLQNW
In words: Calcium mobilization Ke assay. It is filed as cell-based.

`COc1cc(CC2c3cc(OC)c(OC)cc3CCN2CC(=O)NCc2ccccc2)ccc1O` (centres unmarked) [Compound 12, N-Benzyl-2-{1-[(4-hydroxy-3-methoxyphenyl)methyl]-6,7-dimethoxy-1,2,3,4-tetrahydroisoquinolin-2-yl}acetamide]: the OX2/OX1 in experiment [1] is listed as >24. The Kb in experiment [2] is > 10 µM.
As to `CCCCOc1ccc(CC2c3cc(OC)c(OC)cc3CCN2CC(=O)NCc2ccccc2)cc1OC` (centres unmarked) [Compound 13, N-Benzyl-2-{1-[(4-butoxy-3-methoxyphenyl)methyl]-6,7-dimethoxy-1,2,3,4-tetrahydroisoquinolin-2-yl}acetamide], the OX2/OX1 in experiment [1] turned out to be 42. In addition, in experiment [2], the Kb amounted to 2 ± 0.86 µM.
With `CCCCCCOc1ccc(CC2c3cc(OC)c(OC)cc3CCN2CC(=O)NCc2ccccc2)cc1OC` (centres unmarked) [Compound 14, N-Benzyl-2-(1-{[4-(hexyloxy)-3-methoxyphenyl]methyl}-6,7-dimethoxy-1,2,3,4-tetrahydroisoquinolin-2-yl)acetamide], the OX2/OX1 in experiment [1] was >83. In addition, in experiment [2], the Kb was > 10 µM.
`CCCC(=O)Oc1ccc(CC2c3cc(OC)c(OC)cc3CCN2CC(=O)NCc2ccccc2)cc1OC` (centres unmarked) [Compound 16, 4-({2-[(Benzylcarbamoyl)methyl]-6,7-dimethoxy-1,2,3,4-tetrahydroisoquinolin-1-yl}methyl)-2-methoxyphenyl butanoate]: the OX2/OX1 in experiment [1] amounted to 48. Moreover, the Kb in experiment [2] was determined as 2.08 ± 0.6 µM.
For the compound `COc1cc2c(cc1OC)C(Cc1ccc(OCc3ccccc3)c(OC)c1)N(CC(=O)NCc1ccccc1)CC2` (centres unmarked) [Compound 18, N-Benzyl-2-(1-{[4-(benzyloxy)-3-methoxyphenyl]methyl}-6,7-dimethoxy-1,2,3,4-tetrahydroisoquinolin-2-yl)acetamide], the “decrease in OX1 potency compared to 11” value in experiment [1] is given as 2 fold.
Regarding `COc1cc2c(cc1OC)C(Cc1ccc(OS(=O)(=O)c3ccccc3)c(OC)c1)N(CC(=O)NCc1ccccc1)CC2` (centres unmarked) [Compound 23, 4-({2-[(Benzylcarbamoyl)methyl]-6,7-dimethoxy-1,2,3,4-tetrahydroisoquinolin-1-yl}methyl)-2-methoxyphenyl benzenesulfonate], the “decrease in OX1 potency compared to 11” value in experiment [1] is ~ 9 fold.
Same read-out and setting: with `COc1cc2c(cc1OC)C(Cc1ccc(OC)c([N+](=O)[O-])c1)N(CC(=O)NCc1ccccc1)CC2` (centres unmarked) [Compound 26, N-Benzyl-2-{6,7-dimethoxy-1-[(4-methoxy-3-nitrophenyl)methyl]-1,2,3,4-tetrahydroisoquinolin-2-yl}acetamide] the figure was ~ 7 fold.
For `COc1cc2c(cc1OC)C(Cc1ccc(OC)c(N(C)C)c1)N(CC(=O)NCc1ccccc1)CC2` (centres unmarked) [Compound 28, N-Benzyl-2-(1-{[3-(dimethylamino)-4-methoxyphenyl]methyl}-6,7-dimethoxy-1,2,3,4-tetrahydroisoquinolin-2-yl)acetamide], the OX2/OX1 in experiment [1] is 76.7. Also, the Kb in experiment [2] is 0.97 ± 0.35 µM.
On the same counts, the results for `CCNc1cc(CC2c3cc(OC)c(OC)cc3CCN2CC(=O)NCc2ccccc2)ccc1OC` (centres unmarked) [Compound 29, N-Benzyl-2-(1-{[3-(ethylamino)-4-methoxyphenyl]methyl}-6,7-dimethoxy-1,2,3,4-tetrahydroisoquinolin-2-yl)acetamide] are >32 and > 10 µM.
On the same counts, the results for `CCN(CC)c1cc(CC2c3cc(OC)c(OC)cc3CCN2CC(=O)NCc2ccccc2)ccc1OC` (centres unmarked) [Compound 30, N-Benzyl-2-(1-{[3-(diethylamino)-4-methoxyphenyl]methyl}-6,7-dimethoxy-1,2,3,4-tetrahydroisoquinolin-2-yl)acetamide] are >48 and > 10 µM.
In the case of `CCCNc1cc(CC2c3cc(OC)c(OC)cc3CCN2CC(=O)NCc2ccccc2)ccc1OC` (centres unmarked) [Compound 31, N-Benzyl-2-(6,7-dimethoxy-1-{[4-methoxy-3-(propylamino)phenyl]methyl}-1,2,3,4-tetrahydroisoquinolin-2-yl)acetamide], the OX2/OX1 in experiment [1] is >11. In experiment [2], the Kb was > 10 µM.
Regarding `COc1ccc(CC2c3cc(OC)c(OC)cc3CCN2CC(=O)NCc2ccccc2)cc1NCc1ccccc1` (centres unmarked) [Compound 33, N-Benzyl-2-(1-{[3-(benzylamino)-4-methoxyphenyl]methyl}-6,7-dimethoxy-1,2,3,4-tetrahydroisoquinolin-2-yl)acetamide], in experiment [1] (at concentrations up to 10 μM), the “OX1 antagonist activity in words” value is “no activity”.
For the compound `COc1cc2c(cc1OC)C(Cc1cccc(OC(C)C)c1)N(CC(=O)NCc1ccccc1)CC2` (centres unmarked) [Compound 41, N-Benzyl-2-(6,7-dimethoxy-1-{[3-(propan-2-yloxy)phenyl]methyl}-1,2,3,4-tetrahydroisoquinolin-2-yl)acetamide], in experiment [1], the “decrease in OX1 potency compared to 11” value is recorded as ~ 7 fold and the OX2/OX1 is >6.8. The Kb in experiment [2] was > 10 µM.
For `COc1cc2c(cc1OC)C(Cc1cccc([N+](=O)[O-])c1)N(CC(=O)NCc1ccccc1)CC2` (centres unmarked) [Compound 42, N-Benzyl-2-{6,7-dimethoxy-1-[(3-nitrophenyl)methyl]-1,2,3,4-tetrahydroisoquinolin-2-yl}acetamide], the OX2/OX1 in experiment [1] was <0.12. The Kb in experiment [2] came to 1.2 ± 0.16 µM.
Take `COc1cc2c(cc1OC)C(Cc1cccc(N(C)C)c1)N(CC(=O)NCc1ccccc1)CC2` (centres unmarked) [Compound 44, N-Benzyl-2-(1-{[3-(dimethylamino)phenyl]methyl}-6,7-dimethoxy-1,2,3,4-tetrahydroisoquinolin-2-yl)acetamide]: the OX2/OX1 in experiment [1] was found to be 8.8. Also, the Kb in experiment [2] turned out to be 0.66 ± 0.16 µM.
`CCCOc1ccc(CC2c3cc(OC)c(OC)cc3CCN2CC(=O)NCc2ccccc2)cc1` (centres unmarked) [Compound 45, N-Benzyl-2-{6,7-dimethoxy-1-[(4-propoxyphenyl)methyl]-1,2,3,4-tetrahydroisoquinolin-2-yl}acetamide]: the OX2/OX1 in experiment [1] is on record as >27. Moreover, the Kb in experiment [2] was > 10 µM.
`COc1cc2c(cc1OC)C(Cc1ccc(OC(C)C)cc1)N(CC(=O)NCc1ccccc1)CC2` (centres unmarked) [Compound 46, N-Benzyl-2-(6,7-dimethoxy-1-{[4-(propan-2-yloxy)phenyl]methyl}-1,2,3,4-tetrahydroisoquinolin-2-yl)acetamide]: the OX2/OX1 in experiment [1] is reported as >20. Further, in experiment [2], the Kb was > 10 µM.
As to `COc1cc2c(cc1OC)C(Cc1cc(OC)c(OC)c(OC)c1)N(CC(=O)NCc1ccccc1)CC2` (centres unmarked) [Compound 52, N-Benzyl-2-{6,7-dimethoxy-1-[(3,4,5-trimethoxyphenyl)methyl]-1,2,3,4-tetrahydroisoquinolin-2-yl}acetamide], the Kb in experiment [2] is > 10 µM.
As to `COc1cc2c(cc1OC)C(Cc1ccc(C)c(C)c1)N(CC(=O)NCc1ccccc1)CC2` (centres unmarked) [Compound 53, N-Benzyl-2-{1-[(3,4-dimethylphenyl)methyl]-6,7-dimethoxy-1,2,3,4-tetrahydroisoquinolin-2-yl}acetamide], the Kb in experiment [2] is > 10 µM.
On the same count and under the same terms, with `COc1cc2c(cc1OC)C(C(C)c1ccccc1)N(CC(=O)NCc1ccccc1)CC2` (centres unmarked) [Compound 56, N-Benzyl-2-[6,7-dimethoxy-1-(1-phenylethyl)-1,2,3,4-tetrahydroisoquinolin-2-yl]acetamide] the figure was > 10 µM; with `COc1ccc(CCC2c3cc(OC)c(OC)cc3CCN2CC(=O)NCc2ccccc2)cc1OC` (centres unmarked) [Compound 60, N-Benzyl-2-{1-[2-(3,4-dimethoxyphenyl)ethyl]-6,7-dimethoxy-1,2,3,4-tetrahydroisoquinolin-2-yl}acetamide], > 10 µM.
